The values that follow come from US8785457B2 (Cellzome Limited, priority 2009, dated 2014).

Assay [1] addresses T1, PI3K delta (PI3 Kd) (Homo sapiens, UniProt O00329).
T1 construct: endogenous in cells; host or cells: Jurkat, clone E6-1 (ATCC TIB-152) cell lysate
In words: kinobeads assay, PI3K delta. Particulars: kinobeads assay, read-out: Inhibition values (IC50) PI3Kd. It counts as binding. As to the method: (§1) The compounds of the present invention as described were tested in the mTOR kinobeads assay as described below. Briefly, test compounds (at various concentrations) and the affinity matrix with the immobilized phenylmorpholin-chromen ligand (8-(4-aminomethyl-phenyl)-2-morpholin-4-yl-chromen-4-one) were added to cell lysate aliquots and allowed to bind to the proteins in the lysate sample. After the incubation time the beads with captured proteins were separated from the lysate. Bound proteins were then eluted and the presence of mTOR, PI3K delta (PI3 Kd) and DNA-dependent protein kinase (DNA-PK) was detected and quantified using a specific antibody in a dot blot procedure and the Odyssey infrared detection system. Kinobeads assays for PI3K (WO-A 2008/015013) and for kinase selectivity profiling (WO 2006/134056) have been previously described.
(§2) The kinobeads assay was performed as a competitive binding assay in which test compounds were added directly into a cell lysate. Test compounds (at various concentrations) and the affinity matrix (beads with immobilized phenylmorpholin-chromen ligand) were added to cell lysate aliquots and allowed to bind to the proteins contained in the lysate sample. After the incubation time the beads with captured proteins were separated from the lysate. Bound proteins were then eluted and the presence of kinases was detected and quantified using a multiplexed immunodetection format. Dose response curves for individual kinases were generated and IC50 values calculated.
(§3) The affinity matrix (beads with immobilized phenylmorpholin-chromen ligand) was washed two times with 15 ml of 1×DP buffer containing 0.2% NP40 (IGEPAL® CA-630, Sigma, #13021) and then resupended in 5.5 ml of 1×DP buffer containing 0.2% NP40 (10% beads slurry).
(§4) 5×DP buffer: 250 mM Tris-HCl pH 7.4, 25% Glycerol, 7.5 mM MgCl2, 750 mM NaCl, 5 mM Na3VO4, filter the 5×-lysis buffer through 0.22 μm filter and store in aliquots at −80° C. The 5×DP buffer is diluted to 1×DP buffer containing 1 mM DTT and 25 mM NaF.
(§5) Stock solutions of test compounds were prepared in DMSO. In a 96 well plate 30 μl solution of diluted test compounds at 5 mM in DMSO were prepared. Starting with this solution a 1:3 dilution series (9 steps) was prepared. For control experiments (no test compound) a buffer containing 2% DMSO was used. Compound CZC00018052 served as a positive control (PI-103; Calbiochem catalogue number 528100).
(§6) Jurkat cells (ATCC catalogue number TIB-152 Jurkat, clone E6-1) were grown in 1 liter Spinner flasks (Integra Biosciences, #182101) in suspension in RPMI 1640 medium (Invitrogen, #21875-034) supplemented with 10% Fetal Bovine Serum (Invitrogen) at a density between 0.15×10^6 and 1.2×10^6 cells/ml. Cells were harvested by centrifugation, washed once with 1×PBS buffer (Invitrogen, #14190-094) and cell pellets were frozen in liquid nitrogen and subsequently stored at −80° C.
(§7) Jurkat cells were homogenized in a Potter S homogenizer in lysis buffer: 50 mM Tris-HCl, 0.8% NP40, 5% glycerol, 150 mM NaCl, 1.5 mM MgCl2, 25 mM NaF, 1 mM sodium vanadate, 1 mM DTT, pH 7.5. One complete EDTA-free tablet (protease inhibitor cocktail, Roche Diagnostics, 1873580) per 25 ml buffer was added. The material was dounced 10 times using a mechanized POTTER S, transferred to 50 ml falcon tubes, incubated for 30 minutes on ice and spun down for 10 min at 20,000 g at 4° C. (10,000 rpm in Sorvall SLA600, precooled). The supernatant was transferred to an ultracentrifuge (UZ)-polycarbonate tube (Beckmann, 355654) and spun for 1 hour at 100.000 g at 4° C. (33.500 rpm in Ti50.2, precooled). The supernatant was transferred again to a fresh 50 ml falcon tube, the protein concentration was determined by a Bradford assay (BioRad) and samples containing 50 mg of protein per aliquot were prepared. The samples were immediately used for experiments or frozen in liquid nitrogen and stored frozen at −80° C. […]

In assay [2] the target is T2, PI3Kalpha (PI3Ka) (Homo sapiens, UniProt P42336).
T2 construct: endogenous in cells; host or cells: cell lysate
T2 sequence (P42336 whole entry): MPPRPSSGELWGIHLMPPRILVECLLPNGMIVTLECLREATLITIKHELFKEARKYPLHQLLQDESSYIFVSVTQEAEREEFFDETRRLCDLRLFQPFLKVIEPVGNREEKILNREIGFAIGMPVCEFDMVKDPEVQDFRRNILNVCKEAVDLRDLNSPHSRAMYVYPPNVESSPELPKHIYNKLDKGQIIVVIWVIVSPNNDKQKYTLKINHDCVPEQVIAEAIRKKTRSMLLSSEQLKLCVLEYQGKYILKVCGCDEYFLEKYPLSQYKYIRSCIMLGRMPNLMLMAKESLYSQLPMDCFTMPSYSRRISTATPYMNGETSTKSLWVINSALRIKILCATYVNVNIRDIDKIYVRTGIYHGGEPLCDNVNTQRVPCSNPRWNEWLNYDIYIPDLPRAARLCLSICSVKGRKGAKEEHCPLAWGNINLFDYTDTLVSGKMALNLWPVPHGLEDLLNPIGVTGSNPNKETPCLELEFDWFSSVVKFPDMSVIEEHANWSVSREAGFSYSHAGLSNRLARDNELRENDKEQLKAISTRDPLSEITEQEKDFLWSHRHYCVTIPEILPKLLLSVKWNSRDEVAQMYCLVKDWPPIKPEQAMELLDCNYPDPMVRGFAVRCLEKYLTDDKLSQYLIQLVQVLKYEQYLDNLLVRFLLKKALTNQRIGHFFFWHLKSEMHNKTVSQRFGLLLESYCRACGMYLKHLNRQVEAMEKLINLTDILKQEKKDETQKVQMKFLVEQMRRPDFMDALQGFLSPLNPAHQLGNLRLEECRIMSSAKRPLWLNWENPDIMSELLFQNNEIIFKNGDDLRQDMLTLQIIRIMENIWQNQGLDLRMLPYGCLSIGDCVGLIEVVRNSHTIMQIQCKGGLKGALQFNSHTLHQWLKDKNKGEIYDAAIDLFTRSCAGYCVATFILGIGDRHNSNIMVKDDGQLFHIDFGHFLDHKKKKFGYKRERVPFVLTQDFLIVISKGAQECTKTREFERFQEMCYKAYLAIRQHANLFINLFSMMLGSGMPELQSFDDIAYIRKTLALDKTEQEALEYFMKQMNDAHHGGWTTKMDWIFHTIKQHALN
T2 sequence (P27986 whole entry partner): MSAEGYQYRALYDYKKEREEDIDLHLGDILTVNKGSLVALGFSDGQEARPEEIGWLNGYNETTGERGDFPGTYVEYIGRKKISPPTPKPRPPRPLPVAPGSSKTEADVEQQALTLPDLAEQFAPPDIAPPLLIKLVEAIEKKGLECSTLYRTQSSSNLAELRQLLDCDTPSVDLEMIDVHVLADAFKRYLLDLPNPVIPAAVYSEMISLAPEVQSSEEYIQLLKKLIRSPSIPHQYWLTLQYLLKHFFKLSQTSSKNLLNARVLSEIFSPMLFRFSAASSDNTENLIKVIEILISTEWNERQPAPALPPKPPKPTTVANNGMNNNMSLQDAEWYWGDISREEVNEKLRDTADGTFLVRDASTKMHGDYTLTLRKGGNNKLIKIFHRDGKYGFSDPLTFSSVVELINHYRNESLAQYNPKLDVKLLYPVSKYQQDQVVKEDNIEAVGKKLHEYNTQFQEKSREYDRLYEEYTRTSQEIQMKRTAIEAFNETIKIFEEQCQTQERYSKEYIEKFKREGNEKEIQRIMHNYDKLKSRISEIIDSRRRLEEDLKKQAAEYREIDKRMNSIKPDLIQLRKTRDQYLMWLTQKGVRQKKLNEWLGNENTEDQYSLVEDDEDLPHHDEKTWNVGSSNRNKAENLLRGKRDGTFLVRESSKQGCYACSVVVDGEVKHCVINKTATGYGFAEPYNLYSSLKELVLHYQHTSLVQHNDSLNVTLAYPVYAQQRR
The assay can be described thus: kinobeads assay, PI3Kalpha. To be noted: kinobeads assay, Table 6; for IC50: read-out: Inhibition values (IC50) PI3Ka. It counts as binding. As to the method: as §2
(§8) The effect of the compounds on the kinases PI3Kalpha (PI3Ka), PI3 Kbeta (PI3 Kb) and PI3 Kgamma (PI3 Kg) were tested in the kinobeads assay as described (WO-A 2009/098021).

Assay [3] addresses T3, PI3 Kgamma (PI3 Kg) (Homo sapiens, UniProt P48736).
T3 construct: endogenous in cells; host or cells: cell lysate
The assay can be described thus: kinobeads assay, PI3Kgamma. The assay is classed as binding. To be noted: kinobeads assay, Table 6; read-out: Inhibition values (IC50) PI3Kg. As to the method: as §2, §8

For assay [4], the target named is T4, DNA-dependent protein kinase (DNA-PK) (Homo sapiens, UniProt P78527).
T4 construct: endogenous in cells; host or cells: Jurkat, clone E6-1 (ATCC TIB-152) cell lysate
The assay can be described thus: kinobeads assay, DNA-PK. The assay is classed as binding. To be noted: kinobeads assay. The method, then:
as §1, §2, §3, §4, §5, §6, §7

The target of assay [5] is T5, mTOR (Homo sapiens, UniProt P42345).
T5 construct: endogenous in cells; host or cells: Jurkat, clone E6-1 (ATCC TIB-152) cell lysate
The assay can be described thus: mTOR kinobeads assay (competitive binding in Jurkat cell lysate, immunodetection). To be noted: kinobeads assay. As to the method:
The compounds of the present invention as described were tested in the mTOR kinobeads assay as described below. […] After the incubation time the beads with captured proteins were separated from the lysate. Bound proteins were then eluted and the presence of mTOR, PI3K delta (PI3 Kd) and DNA-dependent protein kinase (DNA-PK) was detected and quantified using a specific antibody in a dot blot procedure and the Odyssey infrared detection system.
as §2, §4
Stock solutions of test compounds were prepared in DMSO. In a 96 well plate 30 μl solution of diluted test compounds at 5 mM in DMSO were prepared. Starting with this solution a 1:3 dilution series (9 steps) was prepared. For control experiments (no test compound) a buffer containing 2% DMSO was used.
Jurkat cells were homogenized in a Potter S homogenizer in lysis buffer: 50 mM Tris-HCl, 0.8% NP40, 5% glycerol, 150 mM NaCl, 1.5 mM MgCl2, 25 mM NaF, 1 mM sodium vanadate, 1 mM DTT, pH 7.5. […] The material was dounced 10 times using a mechanized POTTER S, transferred to 50 ml falcon tubes, incubated for 30 minutes on ice and spun down for 10 min at 20,000 g at 4° C. (10,000 rpm in Sorvall SLA600, precooled). […] (33.500 rpm in Ti50.2, precooled). The supernatant was transferred again to a fresh 50 ml falcon tube, the protein concentration was determined by a Bradford assay (BioRad) and samples containing 50 mg of protein per aliquot were prepared. The samples were immediately used for experiments or frozen in liquid nitrogen and stored frozen at −80° C.
Jurkat cell lysate (approximately 50 mg protein per plate) was thawed in a water bath at room temperature and then kept on ice. […] The diluted cell lysate was stored on ice.
Plates were sealed and incubated for two hours in a cold room on a Thermoxer with shaking (750 rpm). Afterwards the plate was washed twice with 230 μl washing buffer (1×DP 0.4% NP40). […] The eluate was frozen quickly at −80° C. and stored at −20° C.
The kinases in the eluates were detected and quantified by spotting on Nitrocellulose membranes and using a first antibody directed against the kinase of interest and a fluorescently labeled secondary antibody (anti-mouse or anti-rabbit IRDye™ antibodies from Rockland).
Afterwards the membrane was washed three times for 10 minutes with PBS buffer containing 0.1% Tween 20 at room temperature. […] Afterwards the membrane was washed three times for 10 minutes each with 1×PBS buffer containing 0.1% Tween 20 at room temperature. Then the membrane was rinsed once with PBS buffer to remove residual Tween 20. The membrane was kept in PBS buffer at 4° C. and then scanned with the Odyssey instrument. Fluorescence signals were recorded and analysed according to the instructions of the manufacturer.

The target of assay [6] is T6, PI3 Kbeta (PI3 Kb) (Homo sapiens, UniProt P42338).
T6 construct: endogenous in cells; host or cells: cell lysate
T6 sequence (P42338 whole entry): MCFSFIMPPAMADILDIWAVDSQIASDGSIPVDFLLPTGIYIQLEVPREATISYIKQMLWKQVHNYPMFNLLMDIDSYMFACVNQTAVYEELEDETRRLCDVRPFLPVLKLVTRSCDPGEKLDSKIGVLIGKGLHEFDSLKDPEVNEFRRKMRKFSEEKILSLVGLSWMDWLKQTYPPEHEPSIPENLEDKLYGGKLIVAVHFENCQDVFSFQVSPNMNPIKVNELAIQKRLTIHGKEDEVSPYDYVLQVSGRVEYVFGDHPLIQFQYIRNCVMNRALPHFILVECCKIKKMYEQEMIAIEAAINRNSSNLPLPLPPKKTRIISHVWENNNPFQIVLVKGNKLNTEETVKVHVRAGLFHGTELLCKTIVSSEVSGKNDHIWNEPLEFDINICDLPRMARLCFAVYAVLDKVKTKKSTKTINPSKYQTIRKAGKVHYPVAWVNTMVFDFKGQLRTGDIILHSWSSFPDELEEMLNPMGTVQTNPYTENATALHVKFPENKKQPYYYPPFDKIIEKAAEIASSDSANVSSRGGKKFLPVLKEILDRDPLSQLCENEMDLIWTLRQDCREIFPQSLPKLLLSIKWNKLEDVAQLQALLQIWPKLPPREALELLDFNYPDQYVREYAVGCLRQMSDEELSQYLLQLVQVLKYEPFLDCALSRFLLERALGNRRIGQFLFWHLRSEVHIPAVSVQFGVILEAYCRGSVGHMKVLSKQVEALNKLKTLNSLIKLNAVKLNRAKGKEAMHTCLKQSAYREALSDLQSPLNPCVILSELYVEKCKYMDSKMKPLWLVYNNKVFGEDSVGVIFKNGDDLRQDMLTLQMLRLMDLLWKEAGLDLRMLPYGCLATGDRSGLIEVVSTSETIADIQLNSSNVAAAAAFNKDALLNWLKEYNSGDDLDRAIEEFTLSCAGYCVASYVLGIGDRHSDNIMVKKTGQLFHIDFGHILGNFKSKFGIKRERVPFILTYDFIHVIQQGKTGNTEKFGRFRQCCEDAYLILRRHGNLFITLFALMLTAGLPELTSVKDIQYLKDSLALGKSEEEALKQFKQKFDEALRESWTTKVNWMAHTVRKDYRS
T6 sequence (P27986 whole entry partner): as the sequence (P27986 whole entry partner) above
The assay can be described thus: kinobeads assay, PI3Kbeta. The assay is classed as binding. Particulars: kinobeads assay, Table 6; read-out: Inhibition values (IC50) PI3Kb. The method, then: as §2, §8

[7] abbreviates: Table 4, read-out: Inhibition values (IC50) DNA-PK.
[8] abbreviates: Table 6, read-out: Inhibition values (IC50) DNAPK.
The mark [9] stands for this setting: Table 4, read-out: Inhibition values (IC50) mTor.
[10] abbreviates: Table 6, read-out: Inhibition values (IC50) mTOR.

Like-named read-outs stand apart in the source and are kept apart here. Some results are limits rather than exact numbers.

T1 sequence (O00329 whole entry): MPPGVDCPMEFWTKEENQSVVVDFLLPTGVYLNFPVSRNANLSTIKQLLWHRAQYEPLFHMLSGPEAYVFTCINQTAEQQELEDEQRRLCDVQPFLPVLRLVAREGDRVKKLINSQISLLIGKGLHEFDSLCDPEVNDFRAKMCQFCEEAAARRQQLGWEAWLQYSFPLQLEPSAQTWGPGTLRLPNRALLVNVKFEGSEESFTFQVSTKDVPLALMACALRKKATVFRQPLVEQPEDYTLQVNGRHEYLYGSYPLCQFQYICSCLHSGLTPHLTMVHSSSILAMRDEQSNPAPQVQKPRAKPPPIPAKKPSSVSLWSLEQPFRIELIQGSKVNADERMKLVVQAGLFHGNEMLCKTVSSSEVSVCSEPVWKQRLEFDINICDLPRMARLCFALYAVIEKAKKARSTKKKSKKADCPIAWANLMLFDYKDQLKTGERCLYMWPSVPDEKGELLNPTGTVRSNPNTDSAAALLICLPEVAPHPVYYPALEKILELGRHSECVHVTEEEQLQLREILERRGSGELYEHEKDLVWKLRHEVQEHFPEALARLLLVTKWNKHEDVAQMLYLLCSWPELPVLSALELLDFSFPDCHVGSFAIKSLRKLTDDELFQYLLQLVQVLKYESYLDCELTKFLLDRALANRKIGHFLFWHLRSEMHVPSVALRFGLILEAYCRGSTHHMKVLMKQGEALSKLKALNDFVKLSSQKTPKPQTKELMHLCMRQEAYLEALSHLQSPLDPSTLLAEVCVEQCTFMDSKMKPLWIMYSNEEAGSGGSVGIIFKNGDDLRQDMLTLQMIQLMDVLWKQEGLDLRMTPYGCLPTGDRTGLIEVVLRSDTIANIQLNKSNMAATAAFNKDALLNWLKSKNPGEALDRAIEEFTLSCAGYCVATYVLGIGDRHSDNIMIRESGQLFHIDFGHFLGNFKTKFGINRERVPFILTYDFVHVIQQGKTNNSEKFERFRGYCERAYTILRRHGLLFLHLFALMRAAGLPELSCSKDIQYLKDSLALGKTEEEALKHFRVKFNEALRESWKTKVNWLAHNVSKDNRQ
T1 sequence (P27986 whole entry partner): as the sequence (P27986 whole entry partner) above
T3 sequence (P48736 whole entry): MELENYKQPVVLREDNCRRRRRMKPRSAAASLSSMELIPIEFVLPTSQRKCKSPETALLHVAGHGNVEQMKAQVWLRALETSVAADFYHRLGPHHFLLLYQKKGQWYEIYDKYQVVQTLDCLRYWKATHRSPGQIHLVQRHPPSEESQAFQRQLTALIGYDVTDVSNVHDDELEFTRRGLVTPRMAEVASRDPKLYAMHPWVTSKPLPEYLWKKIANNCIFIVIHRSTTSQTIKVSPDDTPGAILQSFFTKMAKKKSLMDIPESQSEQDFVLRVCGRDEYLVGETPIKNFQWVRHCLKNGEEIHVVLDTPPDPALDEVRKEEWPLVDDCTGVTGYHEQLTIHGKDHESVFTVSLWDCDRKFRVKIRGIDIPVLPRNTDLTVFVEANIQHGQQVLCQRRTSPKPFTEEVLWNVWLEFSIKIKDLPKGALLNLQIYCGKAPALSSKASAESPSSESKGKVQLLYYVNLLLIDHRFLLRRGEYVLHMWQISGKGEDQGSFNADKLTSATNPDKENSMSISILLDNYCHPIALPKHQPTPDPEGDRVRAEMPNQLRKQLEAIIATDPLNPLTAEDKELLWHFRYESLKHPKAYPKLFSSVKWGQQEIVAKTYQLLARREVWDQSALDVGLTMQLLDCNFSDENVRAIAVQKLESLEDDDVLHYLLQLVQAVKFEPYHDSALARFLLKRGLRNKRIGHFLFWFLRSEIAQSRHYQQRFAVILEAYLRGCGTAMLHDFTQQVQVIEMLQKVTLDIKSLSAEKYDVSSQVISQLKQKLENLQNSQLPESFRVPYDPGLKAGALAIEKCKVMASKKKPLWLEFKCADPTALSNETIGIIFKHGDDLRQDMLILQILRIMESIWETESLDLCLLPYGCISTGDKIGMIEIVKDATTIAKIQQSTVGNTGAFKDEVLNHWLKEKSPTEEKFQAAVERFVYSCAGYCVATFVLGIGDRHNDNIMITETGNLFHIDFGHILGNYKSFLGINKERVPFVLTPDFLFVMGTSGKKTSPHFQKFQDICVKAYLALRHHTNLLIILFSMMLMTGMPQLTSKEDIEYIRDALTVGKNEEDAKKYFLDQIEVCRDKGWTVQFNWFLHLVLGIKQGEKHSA

With `C[C@H]1COCCN1c1nc(-c2ccc(NC(N)=O)cc2)nc2c1CNC2` [Example 5, (S)-1-(4-(4-(3-methylmorpholino)-6,7-dihydro-5H-pyrrolo[3,4-d]pyrimidin-2-yl)phenyl)urea], the concentration for half-maximal inhibition (IC50) in assay [1] (Table 4) was 1 to 10 µM; in assay [1] (Table 6), 1 to 10 µM; in assay [3] it was 0.1 to 1 µM; in assay [4] (setting [7]), over 10 µM; in assay [4] (setting [8]), over 10 µM; in assay [5] (setting [9]), under 0.1 µM. Besides, the IC50 in assay [5] (setting [10]) is under 0.1 µM; in assay [6] it was 1 to 10 µM. Further, the “Inhibition values (IC50) PI3Ka” value in assay [2] was “B (B >0.1 μM < 1 μM)”.

In the case of `C[C@H]1COCCN1c1nc(-c2ccc(NC(=O)NCCN(C)C)cc2)nc2c1CN(C)C2` [Example 54, (S)-1-(2-(dimethylamino)ethyl)-3-(4-(6-methyl-4-(3-methylmorpholino)-6,7-dihydro-5H-pyrrolo[3,4-d]pyrimidin-2-yl)phenyl)urea], the IC50 was 1 to 10 µM in assay [3]; over 10 µM in assay [4] (setting [7]); over 10 µM in assay [4] (setting [8]); 0.1 to 1 µM in assay [5] (setting [9]); 0.1 to 1 µM in assay [5] (setting [10]).

As for `CCNC(=O)Nc1ccc(-c2nc3c(c(N4CCOC[C@@H]4C)n2)CN(C(=O)CCN(C)C)CC3)cc1` [Example 92, (S)-1-(4-(6-(3-(dimethylamino)propanoyl)-4-(3-methylmorpholino)-5,6,7,8-tetrahydropyrido[4,3-d]pyrimidin-2-yl)phenyl)-3-ethylurea], the IC50 in assay [1] (Table 6) is over 10 µM; in assay [3] it was over 10 µM; in assay [4] (setting [8]), over 10 µM; in assay [5] (setting [10]), 0.1 to 1 µM; in assay [6], over 10 µM. In assay [2], the “Inhibition values (IC50) PI3Ka” value is on record as “D (D >10 μM)”.

Take `CCNC(=O)Nc1ccc(-c2nc3c(c(N4CCOCC4)n2)CN(C(C)=O)C3)cc1` [Example 99, 1-(4-(6-acetyl-4-morpholino-6,7-dihydro-5H-pyrrolo[3,4-d]pyrimidin-2-yl)phenyl)-3-ethylurea]: the IC50 in assay [1] (Table 6) was 1 to 10 µM; in assay [2] it was 1 to 10 µM; in assay [3], over 10 µM; in assay [4] (setting [8]), over 10 µM; in assay [5] (setting [10]), under 0.1 µM; in assay [6], 1 to 10 µM.

With `CCNC(=O)Nc1ccc(-c2nc3c(c(N4CCOC[C@@H]4C)n2)CCN(C)C3)c(C)c1` [Example 109, (S)-1-ethyl-3-(3-methyl-4-(7-methyl-4-(3-methylmorpholino)-5,6,7,8-tetrahydropyrido[3,4-d]pyrimidin-2-yl)phenyl)urea], the IC50 in assay [1] (Table 6) was over 10 µM; in assay [3], over 10 µM; in assay [4] (setting [8]), over 10 µM; in assay [5] (setting [10]) it was 0.1 to 1 µM; in assay [6] it was over 10 µM. For the same compound, the “Inhibition values (IC50) PI3Ka” value in assay [2] is on record as “D (D >10 μM)”.

Take `C[C@H]1COCCN1c1nc(-c2ccc(NC(=O)NC3CC3)cc2)nc2c1CN(C(=O)CCC(N)=O)C2` [Example 127, (S)-4-(2-(4-(3-cyclopropylureido)phenyl)-4-(3-methylmorpholino)-5H-pyrrolo[3,4-d]pyrimidin-6(7H)-yl)-4-oxobutanamide]: the IC50 in assay [1] (Table 6) is over 10 µM; in assay [2], 1 to 10 µM; in assay [3] it was over 10 µM; in assay [5] (setting [10]) it was under 0.1 µM.

Turning to `C[C@H]1COCCN1c1nc(-c2ccc(NC(=O)NC3CC3)cc2)nc2c1CN(CC1CCN(C(=O)OC(C)(C)C)CC1)C2` [Example 128, (S)-tert-butyl 4-((2-(4-(3-cyclopropylureido)phenyl)-4-(3-methylmorpholino)-5H-pyrrolo[3,4-d]pyrimidin-6(7H)-yl)methyl)piperidine-1-carboxylate], the IC50 in assay [1] (Table 6) was over 10 µM; in assay [3] it was over 10 µM; in assay [5] (setting [10]), 0.1 to 1 µM. Further, the “Inhibition values (IC50) PI3Ka” value in assay [2] is given as “D (D >10 μM)”.

A word on the IC50: it is the concentration that inhibits the measured activity by half.
